Data: PubChem BioAssay (NCI)
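Dose response: 5 concentrations. Exposure: 48 h. Format: 96-well plates. Endpoint: linear interpolation; highest concentration if not reached. At the GI50, growth is halved. TGI is the concentration that stops growth completely.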

How the values were obtained:
Assay in all cases: DTP human tumour cell line panel, 48 h
[1] = system: 786-0 renal
[2] = system: A498 renal
[3] = system: A549 NSCLC
[4] = system: ACHN renal
[5] = system: BT-549 breast
[6] = system: CAKI-1 renal
[7] = system: COLO 205 colon
[8] = system: DU-145 prostate
[9] = system: EKVX NSCLC
[10] = system: HCC-2998 colon
[11] = system: HCT-116 colon
[12] = system: HCT-15 colon
[13] = system: HL-60(TB) leukemia
[14] = system: HOP-62 NSCLC
[15] = system: HOP-92 NSCLC
[16] = system: HS 578T breast
[17] = system: HT29 colon
[18] = system: IGROV1 ovarian
[19] = system: K-562 leukemia
[20] = system: KM12 colon
[21] = system: LOX IMVI melanoma
[22] = system: M14 melanoma
[23] = system: MALME-3M melanoma
[24] = system: MCF7 breast
[25] = system: MDA-MB-231 breast
[26] = system: MDA-MB-435
[27] = system: MOLT-4 leukemia
[28] = system: NCI-H226 lung
[29] = system: NCI-H23 lung
[30] = system: NCI-H460 lung
[31] = system: NCI-H522 lung
[32] = system: NCI/ADR-RES ovarian
[33] = system: OVCAR-3 ovarian
[34] = system: OVCAR-4 ovarian
[35] = system: OVCAR-5 ovarian
[36] = system: OVCAR-8 ovarian
[37] = system: PC-3 prostate
[38] = system: RPMI-8226 leukemia
[39] = system: RXF 393 renal
[40] = system: SF-268 CNS
[41] = system: SF-295 CNS
[42] = system: SF-539 CNS
[43] = system: SK-MEL-2 melanoma
[44] = system: SK-MEL-28 melanoma
[45] = system: SK-MEL-5 melanoma
[46] = system: SK-OV-3 ovarian
[47] = system: SN12C renal
[48] = system: SNB-19 CNS
[49] = system: SNB-75 CNS
[50] = system: SR leukemia
[51] = system: SW-620 colon
[52] = system: T-47D breast
[53] = system: TK-10 renal
[54] = system: U251 CNS
[55] = system: UACC-257 melanoma
[56] = system: UACC-62 melanoma
[57] = system: UO-31 renal

Structure (SMILES): Clc1ccc2c(c1)C(Br)c1cc(Cl)cc(Cl)c1-2 (centres undefined)
- GI50 [1]: > 100 µM
- TGI [1]: > 100 µM
- GI50 [2]: > 100 µM
- TGI [2]: > 100 µM
- GI50 [3]: > 100 µM
- TGI [3]: > 100 µM
- GI50 [4]: > 100 µM
- TGI [4]: > 100 µM
- GI50 [5]: 3.56 µM
- TGI [5]: 41.6 µM
- GI50 [6]: 56.4 µM
- TGI [6]: > 100 µM
- GI50 [7]: > 100 µM
- TGI [7]: > 100 µM
- GI50 [8]: > 100 µM
- TGI [8]: > 100 µM
- GI50 [9]: 2.82 µM
- TGI [9]: > 100 µM
- GI50 [10]: > 100 µM
- TGI [10]: > 100 µM
- GI50 [11]: 8.74 µM
- TGI [11]: > 100 µM
- GI50 [12]: 74.5 µM
- TGI [12]: > 100 µM
- GI50 [13]: > 100 µM
- TGI [13]: > 100 µM
- GI50 [14]: > 100 µM
- TGI [14]: > 100 µM
- GI50 [15]: 12.4 µM
- TGI [15]: > 100 µM
- GI50 [16]: > 100 µM
- TGI [16]: > 100 µM
- GI50 [17]: > 100 µM
- TGI [17]: > 100 µM
- GI50 [18]: 18.6 µM
- TGI [18]: > 100 µM
- GI50 [19]: 8.74 µM
- TGI [19]: > 100 µM
- GI50 [20]: > 100 µM
- TGI [20]: > 100 µM
- GI50 [21]: 2.46 µM
- TGI [21]: > 100 µM
- GI50 [22]: 3.35 µM
- TGI [22]: 35.7 µM
- GI50 [23]: 3.49 µM
- TGI [23]: > 100 µM
- GI50 [24]: 20.5 µM
- TGI [24]: > 100 µM
- GI50 [25]: 30.8 µM
- TGI [25]: > 100 µM
- GI50 [26]: 5.19 µM
- TGI [26]: > 100 µM
- GI50 [27]: 10.8 µM
- TGI [27]: > 100 µM
- GI50 [28]: 2.75 µM
- TGI [28]: 34.8 µM
- GI50 [29]: 2.83 µM
- TGI [29]: 36.8 µM
- GI50 [30]: > 100 µM
- TGI [30]: > 100 µM
- GI50 [31]: 2.53 µM
- TGI [31]: > 100 µM
- GI50 [32]: 42.7 µM
- TGI [32]: > 100 µM
- GI50 [33]: > 100 µM
- TGI [33]: > 100 µM
- GI50 [34]: 71.5 µM
- TGI [34]: > 100 µM
- GI50 [35]: > 100 µM
- TGI [35]: > 100 µM
- GI50 [36]: 28.6 µM
- TGI [36]: > 100 µM
- GI50 [37]: > 100 µM
- TGI [37]: > 100 µM
- GI50 [38]: 38.9 µM
- TGI [38]: > 100 µM
- GI50 [39]: 27 µM
- TGI [39]: 86.6 µM
- GI50 [40]: 29.9 µM
- TGI [40]: > 100 µM
- GI50 [41]: > 100 µM
- TGI [41]: > 100 µM
- GI50 [42]: 82.5 µM
- TGI [42]: > 100 µM
- GI50 [43]: 33.8 µM
- TGI [43]: > 100 µM
- GI50 [44]: > 100 µM
- TGI [44]: > 100 µM
- GI50 [45]: 6.81 µM
- TGI [45]: 72.3 µM
- GI50 [46]: > 100 µM
- TGI [46]: > 100 µM
- GI50 [47]: 3.84 µM
- TGI [47]: > 100 µM
- GI50 [48]: > 100 µM
- TGI [48]: > 100 µM
- GI50 [49]: 19 µM
- TGI [49]: > 100 µM
- GI50 [50]: 4.34 µM
- TGI [50]: > 100 µM
- GI50 [51]: 5.46 µM
- TGI [51]: > 100 µM
- GI50 [52]: > 100 µM
- TGI [52]: > 100 µM
- GI50 [53]: > 100 µM
- TGI [53]: > 100 µM
- GI50 [54]: > 100 µM
- TGI [54]: > 100 µM
- GI50 [55]: > 100 µM
- TGI [55]: > 100 µM
- GI50 [56]: 39.9 µM
- TGI [56]: > 100 µM
- GI50 [57]: 67.7 µM
- TGI [57]: > 100 µM
